# Results published in patent US20240398813A1, “PHARMACEUTICAL COMPOSITION FOR PREVENTING OR TREATING OVERACTIVE BLADDER” (GWANGJU INSTITUTE OF SCIENCE AND TECHNOLOGY, priority 2021, published 2024).
# pEC50: −log10 of the molar value.
# Molecular target: T1, hyperactive mutant BKCa channels (hSlo G803D/N806K) stably expressed in AD 293 cells (Homo sapiens, UniProt Q12791, G856D/N859K)
# T1 construct: expressed in transfected cells
# Assay: Cell-based fluorescence assay (FluxOR Potassium Ion Channel Assay) of BKCa channel activation
# Design: key to Channel activity increase for 80 s (ΔRFU) at 6 μM: ratio of ΔRFU (RFU at 100 s − 20 s) to the same ΔRFU for vehicle
# In short: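 AD 293 cells stably expressing hSlo G803D/N806K were exposed to compound in assay buffer for 15 min, then read by FluxOR thallium-flux fluorescence (ex 485/em 528 nm) every 2 s for 120 s. Initial rate vi from 20–24 s; ΔRFU from 20–100 s, normalised to vehicle and measured at 6 μM; apparent EC50 from dose-response fit.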
# T1 sequence (Q12791 whole entry G856D/N859K): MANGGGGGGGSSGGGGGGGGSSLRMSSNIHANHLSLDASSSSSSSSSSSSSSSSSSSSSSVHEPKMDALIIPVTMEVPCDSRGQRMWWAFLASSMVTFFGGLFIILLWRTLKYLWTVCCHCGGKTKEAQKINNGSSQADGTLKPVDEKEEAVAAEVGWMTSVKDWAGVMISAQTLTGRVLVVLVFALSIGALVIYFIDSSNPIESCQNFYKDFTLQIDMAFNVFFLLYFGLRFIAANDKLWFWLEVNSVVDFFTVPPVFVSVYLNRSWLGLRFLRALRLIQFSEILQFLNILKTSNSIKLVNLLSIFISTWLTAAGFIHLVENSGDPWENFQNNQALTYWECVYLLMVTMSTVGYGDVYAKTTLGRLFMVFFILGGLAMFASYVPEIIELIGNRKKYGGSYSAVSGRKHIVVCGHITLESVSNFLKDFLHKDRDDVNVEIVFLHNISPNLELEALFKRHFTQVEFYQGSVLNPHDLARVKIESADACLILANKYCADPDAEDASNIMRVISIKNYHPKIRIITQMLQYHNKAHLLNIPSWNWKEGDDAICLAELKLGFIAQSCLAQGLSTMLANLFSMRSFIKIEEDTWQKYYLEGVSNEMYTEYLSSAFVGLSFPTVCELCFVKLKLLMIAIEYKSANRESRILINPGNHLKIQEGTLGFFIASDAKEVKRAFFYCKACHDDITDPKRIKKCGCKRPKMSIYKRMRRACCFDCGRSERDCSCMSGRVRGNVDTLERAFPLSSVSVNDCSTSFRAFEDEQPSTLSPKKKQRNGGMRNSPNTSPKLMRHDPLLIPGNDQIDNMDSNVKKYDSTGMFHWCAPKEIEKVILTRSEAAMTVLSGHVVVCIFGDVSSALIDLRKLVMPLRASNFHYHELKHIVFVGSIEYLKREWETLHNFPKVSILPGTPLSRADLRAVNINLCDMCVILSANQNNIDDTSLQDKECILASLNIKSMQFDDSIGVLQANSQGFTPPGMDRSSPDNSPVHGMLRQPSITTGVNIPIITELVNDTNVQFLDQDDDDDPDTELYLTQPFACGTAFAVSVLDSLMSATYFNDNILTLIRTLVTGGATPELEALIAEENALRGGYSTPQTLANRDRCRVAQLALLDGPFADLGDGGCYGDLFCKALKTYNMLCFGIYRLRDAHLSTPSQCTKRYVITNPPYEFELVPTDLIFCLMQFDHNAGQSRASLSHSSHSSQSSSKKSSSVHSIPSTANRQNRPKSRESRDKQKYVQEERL
smiles,measurement,setting,value
"Cc1cccc(NC(=O)c2sc(=S)n3c2[nH]c(=O)c2cc(Br)ccc23)c1 [TTQC-1, 7-bromo-5-oxo-1-thioxo-N-(m-tolyl)-4,5-dihydro-1H-thiazolo[3,4-a]quinazoline-3-carboxamide]",increase in fluorescence induced by TTQC-1 in the presence of BKCa channel inhibitors,"2 μM TTQC-1, 1 μM paxillin and 0.1 μM iberiotoxin",removed
same,activation effect on the BKCa channel relative to LDD175,3 μM,1.6 times
same,activation effect on the BKCa channels at a single concentration,3 μM,most potent effect
same,effect (ΔRFU) relative to vehicle,6 μM,4.98±0.05 times
same,Initial velocity of channel activation for 4 s (vi) at 6 μM,"6 μM, first 4 s after channel stimulation",9.77 s⁻¹
same,Channel activity increase for 80 s (ΔRFU) at 6 μM,"6 μM, normalized by vehicle",4.98
same,concentration at which the Tl+ flux effect was saturated,0.6-10 μM tested,6 µM
same,TTQC-1 activation effect in the presence of 0.1 μM iberiotoxin,TTQC-1 at concentrations above 4 μM,activated the BKCa channels
same,TTQC-1 activation effect in the presence of 0.1 μM iberiotoxin,TTQC-1 at concentrations below 2 μM,eliminated
same,pEC50,"fit of dose-response curve of initial rates, read-out: Apparent EC50 based on vi",5.24
